The values below are quoted from earlier work in patent US8298573B2, “Stable sterile filterable liposomal encapsulated taxane and other antineoplastic drugs” (priority 2003, dated 2012).

Structures are written as SMILES.

Consider `CC(=O)O[C@H]1C(=O)[C@@]2(C)[C@H]([C@H](OC(=O)c3ccccc3)[C@]3(O)C[C@H](OC(=O)[C@H](O)[C@@H](NC(=O)c4ccccc4)c4ccccc4)C(C)=C1C3(C)C)[C@]1(OC(C)=O)CO[C@@H]1C[C@@H]2O` [paclitaxel], for which the solubility in water entry was “extremely low”.
